# Measured values as given in US20080124285A1, “Merocyanine Derivatives for Cosmetic Use” (priority 2003, published 2008).
# Assay: UV absorption maximum (λmax) in solvent
# Assay type: physicochemical
# Details: acetonitril; preparation example
row,λmax [nm],Compound
1,389,CCOC(=O)/C(C#N)=C1\C=C(NCCNC2=C/C(=C(/C#N)C(=O)OCC)CC(C)(C)C2)CC(C)(C)C1 [MC02]

# Same assay, conditions: ethanol; preparation example
row,λmax [nm],Compound
1,373,CCOC(=O)C(C(=O)OCC)=C1C=C(NC2CCCCC2NC2=CC(=C(C(=O)OCC)C(=O)OCC)CC(C)(C)C2)CC(C)(C)C1 (centres unmarked) [MC10]
2,406,CCOC(=O)/C(C#N)=C1\C=C(N2CCN(C3=C/C(=C(/C#N)C(=O)OCC)CC(C)(C)C3)CC2)CC(C)(C)C1 [MC07]

# Same assay, conditions: in Acetonitril; Table MC1a (intermediates, UV-B absorbers)
row,λmax [nm],Compound
1,295(Acetonitril) nm,CC1(C)CC(=O)C=C(NC2CCCCC2NC2=CC(=O)CC(C)(C)C2)C1 (centres unmarked) [MC08a]

# Same assay, conditions: in Acetonitrile; Table MC1
row,λmax [nm],Compound
1,383(Aceto-nitrile) nm,CC1(C)CC(NCC2(C)CC(NC3=CC(=C(C#N)C#N)CC(C)(C)C3)CC(C)(C)C2)=CC(=C(C#N)C#N)C1 (centres unmarked) [MC37]

# Same assay, conditions: in EtOH; Table MC1
row,Compound,λmax [nm]
1,CCCCC(CC)COC(=O)/C(C#N)=C1/C=C(NCCNC2=C/C(=C(\C#N)C(=O)OCC(CC)CCCC)CC(C)(C)C2)CC(C)(C)C1 (centres unmarked) [MC01],"366,398(EtOH) nm"
2,CCOC(=O)C(C(=O)OCC)=C1C=C(NCC2(C)CC(NC3=CC(=C(C(=O)OCC)C(=O)OCC)CC(C)(C)C3)CC(C)(C)C2)CC(C)(C)C1 (centres unmarked) [MC25],378(EtOH) nm
3,CCOC(=O)C(C(=O)OCC)=C1C=C(N2CCN(C3=CC(=C(C(=O)OCC)C(=O)OCC)CC(C)(C)C3)CC2)CC(C)(C)C1 [MC08],373(EtOH) nm
4,CCOC(=O)/C(C#N)=C1\C=C(N2CCN(C3=C/C(=C(/C#N)C(=O)OCC)CC(C)(C)C3)CC2)CC(C)(C)C1 [MC07],406(EtOH) nm
5,CCCCC(CC)COC(=O)/C(C#N)=C1/C=C(NC2CCCCC2NC2=C/C(=C(\C#N)C(=O)OCC(CC)CCCC)CCC2)CCC1 (centres unmarked) [MC36],401(EtOH) nm
6,CCOC(=O)/C(C#N)=C1\C=C(NC2CC(C)(C)CC(C)(CNC3=C/C(=C(\C#N)C(=O)OCC)CC(C)(C)C3)C2)CC(C)(C)C1 (centres unmarked) [MC24],391(EtOH) nm
7,CCOC(=O)C(C(=O)OCC)=C1C=C(NCCCCCCNC2=CC(=C(C(=O)OCC)C(=O)OCC)CCC2)CCC1 [MC19],370(EtOH) nm

# Second part, the molecule after the results:
row,λmax [nm],Compound
1,"366,398(EtOH) nm",CCOC(=O)/C(C#N)=C1\C=C(NCCNC2=C/C(=C(/C#N)C(=O)OCC)CC(C)(C)C2)CC(C)(C)C1 [MC02]
2,388(EtOH) nm,CCOC(=O)/C(C#N)=C1\C=C(NCCCCCCNC2=C/C(=C(/C#N)C(=O)OCC)CCC2)CCC1 [MC18]
3,384(EtOH) nm,CCOC(=O)C(C(=O)OCC)=C1C=C(NC2CCCCC2NC2=CC(=C(C(=O)OCC)C(=O)OCC)CC(C)(C)C2)CC(C)(C)C1 (centres unmarked) [MC10]
4,383(EtOH) nm,CCOC(=O)C(C(=O)OCC)=C1C=C(NCCNC2=CC(=C(C(=O)OCC)C(=O)OCC)CC(C)(C)C2)CC(C)(C)C1 [MC03]
5,357/388(EtOH),CC1(C)CC(NC2CCCCC2NC2=CC(=C(C#N)C#N)CC(C)(C)C2)=CC(=C(C#N)C#N)C1 (centres unmarked) [MC34]
6,389(EtOH) nm,COC(=O)C(C(=O)OC)=C1C=C(NC2CCCCC2NC2=CC(=C(C(=O)OC)C(=O)OC)CCC2)CCC1 (centres unmarked) [MC35]

# Same assay, conditions: in EtOH; Table MC1a (intermediates, UV-B absorbers)
row,λmax [nm],Compound
1,309 (EtOH) nm,CC1(C)CC(=O)C=C(N2CCN(C3=CC(=O)CC(C)(C)C3)CC2)C1 [MC06a]
2,296 (EtOH) nm,CC1(C)CC(=O)C=C(NCCNC2=CC(=O)CC(C)(C)C2)C1 [MC01a]
